Results published in paper PMC8748444, “Hypocrates is a genetically encoded fluorescent biosensor for (pseudo)hypohalous acids and their derivatives” (Nature Communications, 2022).

Tests used:
[1] = molecular target: T1, Hypocrates (NemR-cpYFP biosensor) (Escherichia coli, UniProt P67430, C21S/C98S/C116S/C149S/C153S, form not given); assay: fluorescence titration, Ex500/Ex417 ratio; assay type: binding; conditions: covalent (oxidation); 100 mM sodium phosphate pH 7.4, 25 °C; 0.5 µM protein
T1 construct: cpYFP (from HyPer-2) inserted with SAG/GT linkers into flexible loop of NemR^C106; pQE30; with Green fluorescent protein (circularly permuted yellow variant, cpYFP)
T1 sequence (P67430 whole entry C21S/C98S/C116S/C149S/C153S, form open): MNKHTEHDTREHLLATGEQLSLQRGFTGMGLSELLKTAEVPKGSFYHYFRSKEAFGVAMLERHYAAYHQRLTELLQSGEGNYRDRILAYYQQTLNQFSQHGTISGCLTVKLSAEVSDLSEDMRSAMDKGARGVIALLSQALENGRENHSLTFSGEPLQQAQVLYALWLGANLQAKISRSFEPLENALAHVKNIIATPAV

NemR^C106 [2] = molecular target: T2, NemR^C106 (Escherichia coli, UniProt P67430, C21S/C98S/C116S/C149S/C153S); assay: intrinsic Trp fluorescence shift; assay type: binding; conditions: covalent (oxidation); 2 µM protein, 50 µM oxidant; 100 mM sodium phosphate pH 7.4
T2 construct: pET-21b(+) in E. coli BL21 (DE3); Ni-Sepharose purified; DTT-reduced before assay; NemR homo-dimer
T2 sequence (P67430 whole entry C21S/C98S/C116S/C149S/C153S): as the sequence (P67430 whole entry C21S/C98S/C116S/C149S/C153S, form open) above

[3] = molecular target: T3, Hypocrates (NemR-cpYFP biosensor) (Escherichia coli, UniProt P67430, C21S/C98S/C106S/C116S/C149S/C153S, form not given); assay: fluorescence excitation spectra in E. coli cells expressing the sensor; assay type: cell-based; conditions: HypocratesCS, key Cys replaced; 80 µM oxidant; PBS pH 7.4
T3 construct: cpYFP (from HyPer-2) inserted with SAG/GT linkers into flexible loop of NemR^C106; pQE30; with Green fluorescent protein (circularly permuted yellow variant, cpYFP)
T3 sequence (P67430 whole entry C21S/C98S/C106S/C116S/C149S/C153S, form open): as the sequence (P67430 whole entry C21S/C98S/C116S/C149S/C153S, form open) above, with C106S counted along it

[4] = molecular target: T4, Hypocrates (NemR-cpYFP biosensor) (Escherichia coli, UniProt P67430, C21S/C98S/C116S/C149S/C153S/K175A, form not given); assay: as above; assay type: cell-based; conditions: HypocratesKA; 80 µM oxidant; PBS pH 7.4
T4 construct: cpYFP (from HyPer-2) inserted with SAG/GT linkers into flexible loop of NemR^C106; pQE30; with Green fluorescent protein (circularly permuted yellow variant, cpYFP)
T4 sequence (P67430 whole entry C21S/C98S/C116S/C149S/C153S/K175A, form open): as the sequence (P67430 whole entry C21S/C98S/C116S/C149S/C153S, form open) above, with K175A counted along it

[5] = molecular target: T1, Hypocrates (NemR-cpYFP biosensor); assay: stopped-flow, cpYFP fluorescence (λex […] nm); assay type: binding; conditions: covalent (oxidation, chlorination); 100 mM sodium phosphate pH 7.4, 25 °C; 0.5 µM protein
NemR^C106 [6] = molecular target: T2, NemR^C106; assay: stopped-flow, intrinsic Trp fluorescence; assay type: binding; conditions: covalent (oxidation); 100 mM sodium phosphate pH 7.4, 25 °C; 1 µM protein
[7] = molecular target: Hypocrates (NemR-cpYFP biosensor) (E. coli); assay: SEC; Superdex 200 Increase 10/300 GL, 100 mM sodium phosphate buffer pH 7.4, 24 °C, 0.75 ml/min; samples incubated with 5 mM DTT or with N-chlorotaurine at 1:20 protein/oxidant ratio for 5 min before injection; absorbance at 415 nm; column calibrated with mass standards

## N#CSO [HOSCN]
[1]
  sensitivity (slope of initial linear part): ~ 1.11 µM^−1

## OBr [NaOBr]
NemR^C106 [2]
  intrinsic Trp fluorescence shift: The oxidants NaOCl, NCT, and NaOBr caused Trp-fluorescence shifts

## OCl [NaOCl]
[3]
  no response: E. coli cells expressing HypocratesCS did not respond anymore to the addition of NaOCl
[4]
  fluorescence excitation spectra in E. coli cells expressing the sensor: we found that HypocratesKA is still highly sensitive to NaOCl (Fig. 1i)
[5]
  second-order rate constant (kon): (1.4 ± 0.056) × 10^6 M^−1s^−1
NemR^C106 [6]
  second-order rate constant: ~ 3.0 × 10^5 M^−1s^−1

## Hypocrates (NemR-cpYFP biosensor)
[7]
  stoichiometry N: 2
